The record followed here is patent US5674730A, “Eukaryotic cells comprising a DNA sequence encoding a bacterial-viral chimeric transactivator protein” (priority 1993, dated 1997).

Holding throughout (assay type): cell-based
In assay [1] the test system is LAP348 lac activator protein: E. coli lacI 5'N1 with HSV VP16 amino acids 369-488 inserted after lacI amino acid 348, stably expressed. Briefly: CAT assay in cell line stably expressing LAP348, with or without IPTG (FIG. 8). The following applies: IPTG (10 mM per FIG. 8 legend) added to medium two days before transfection; LAPneo2b cells. How it is done:
FIG. 8 Inhibition of LAP348 activity of L3 cells by IPTG. Either LTK or L3, or L3 cells grown in the presence of 10 mM IPTG (L3+i) for 48 hours before transfection, were transfected with either pSV2cat or pL1-2cat as indicated. The relative activity of the extracts normalized to that produced by SV2cat in Ltk- cells are shown below.
(§1) Cells were transfected by the calcium phosphate precipitation method as previously described (Wigler et al., 1979, Proc. Natl. Acad. Sci. USA 76:1373-1376). For transient expression assays, 50-70% confluent […] of cells were incubated overnight after addition to the media of a 1 ml precipitate containing 2 μg of reporter and 1 μg of effector plasmids and carrier DNA (high molecular weight calf thymus DNA) for a total of 25 μg of DNA. The media and precipitate were removed and replaced with fresh media the next morning.
Cells were harvested 44-48 hours after transfection and CAT assays performed essentially as described (Gorman et al., 1982, Mol. Cell Biol. 2:1044-1051). Equal amounts (30-200 μg) of protein were used in each experiment. CAT activity was quantitated by thin layer chromatography and liquid scintillation counting of spots. Extracts that converted greater than 80% of the chloramphenicol in an assay were diluted appropriately to ensure linearity of the assay. […]

The test system of assay [2] is LAP348 lac activator protein: E. coli lacI 5'N1 (SV40 nuclear localization signal) with HSV VP16 amino acids 369-488 inserted after lacI amino acid 348. Briefly: Transient cotransfection CAT assay with or without IPTG in the growth medium (FIG. 6). The following applies: 10 mM IPTG in growth medium; HeLa cells cotransfected with pL1-2CAT and pHCMVLAP348. How it is done:
FIG. 6 Inhibition of LAP activity by IPTG. HeLa cells were plated out two days before transfection in normal media or media containing 10 mM IPTG. Transfections contained 2 μg of either pSV2CAT or pL1-2CAT alone or with 1 μg of pHCMVLAP348. Cells transfected in IPTG were fed with media containing 10 mM IPTG 16 hours after transfection. CAT assays were preformed as described in the text. The relative activities (RA) of each extract normalized to that produced by pSV2CAT are shown below the figure.
as §1
Cells were harvested 44-48 hours after transfection and CAT assays performed essentially as described (Gorman et al., 1982, Mol. Cell Biol. 2:1044-1051). Equal amounts (30-200 μg) of protein were used in each experiment. CAT activity was quantitated by thin layer chromatography and liquid scintillation counting of spots. […]

Assay [3] concerns LAP267 temperature-sensitive lac activator protein: E. coli lacI 5'N1 with HSV VP16 segment inserted after lacI amino acid 267. Kind of assay: CAT expression from pL14CAT as a function of IPTG concentration at 39.5° C. (FIG. 9). As to conditions: 39.5° C. (non-permissive temperature); HeLa cells cotransfected with LAP267 and pL14CAT. The procedure:
FIG. 9 Reverse-regulatory effect of IPTG on transactivator activity of LAP267 at 39.5° C.
LAP267 was constructed as described for LAP348 in Section 6.1.1., supra, except that the VP16 segment was inserted at an EcoRV site after amino acid 267 in the lacI coding region (FIG. 1A).
HeLa cells were cotransfected with plasmids encoding the LAP267 or LAP348 activator protein and pL14CAT, encoding CAT reporter gene. […] This property enables the expression of genes controlled by LAP267 to be induced at 39.5° C. by addition of IPTG to the culture medium.

The structures appear in SMILES notation.

Consider `CC(C)S[C@@H]1O[C@H](CO)[C@H](O)[C@H](O)[C@H]1O` [IPTG, isopropyl β-D-thiogalactoside], for which the “reduction of expression of pL1-2CAT in LAP348-expressing cell line” value in assay [1] is “greater than 30 fold”. Besides, in assay [2], the “reduction of the level of activation of pL1-2CAT by LAP348” value is recorded as “greater than 10 fold”. In assay [3], the “effect of IPTG on transactivator activity of LAP267” value is “reverse regulator”.
